IC50, inhibition and fold change (FC) data for 31 compounds are collected here from ChEMBL document CHEMBL1158462, “Recent advances in the development of polyamine analogues as antitumor agents” (J Med Chem, 2009).

As usually defined, the IC50 is the midpoint of a concentration-inhibition curve. The inhibition is the drop in the measured response relative to a control, in per cent.

The subject of assay [1] is NCI-H157. Put plainly: Antitumor activity against human NCI-H157 cells by MTT assay. The format is functional, cell-based.
Assay [2] deals with L1210. Put plainly: Antitumor activity against mouse L1210 cells. The format is functional, cell-based.
The test system of assay [3] is DuPro. Put plainly: Antitumor activity against human DuPro cells. The format is functional, cell-based.
The test system of assay [4] is PC-3. Put plainly: cells. Particulars: Homo sapiens.
Description: Antitumor activity against human PC3 cells
Assay [5] relates to DU-145. Put plainly: Antitumor activity against human DU145 cells. The format is functional, cell-based.
Assay [6] deals with A549. As to the kind of experiment: Antitumor activity against human A549 cells. It counts as functional, cell-based.
For assay [7], the system named is HT-29. Put plainly: Antitumor activity against human HT-29 cells. It counts as functional, cell-based.
Assay [8] in a line: Antitumor activity against human U251MG cells. The conditions noted are these: U-251. It counts as functional, cell-based.
Assay [9] deals with MCF7. Put plainly: cells. It counts as functional, cell-based. The conditions noted are these: Homo sapiens.
Description: Antitumor activity against human MCF7 cells
Assay [10] in a line: cells. The conditions noted are these: Mus musculus, ML1.
Description: Antitumor activity against mouse ML1 cells
In assay [11] the test system is LNCaP. Put plainly: Antitumor activity against human LNCAP cells. The format is functional, cell-based.
The test system of assay [12] is MCF-10A. Put plainly: cells. The format is functional, cell-based. The conditions noted are these: Homo sapiens.
Description: Antitumor activity against human MCF10A cells
Assay [13] deals with T1, Histone deacetylase (Homo sapiens) (UniProt Q13547+O15379+Q9UBN7+Q92769+Q9UQL6+Q8WUI4+Q9BY41+Q96DB2+P56524+Q9UKV0+Q969S8). Particulars: HeLa, at 5 µM.
Description: Inhibition of HDAC from human HeLa cells assessed as of histone H3 acetylation at 5 uM
In assay [14] the target is T1, Histone deacetylase (Homo sapiens). Put plainly: Inhibition of HDAC from human HeLa cells assessed as induction of histone H3 acetylation at 1 uM. The format is cell-based.
Assay [15] in a line: Antitumor activity against human H82 cells. It counts as functional, cell-based. The conditions noted are these: NCI-H82.
Assay [16] deals with NCI-H69. As to the kind of experiment: Antitumor activity against human H69 cells. It counts as functional, cell-based.
In assay [17] the target is T1, Histone deacetylase (Homo sapiens). As to the kind of experiment: Inhibition of HDAC from human HeLa cells assessed as fold induction of alpha tubulin acetylation. The format is cell-based.

For `c1ccc(-c2ccccc2CNCCCNCCCCNCCCNCc2ccccc2-c2ccccc2)cc1`, 4100 nM corresponded to half-maximal inhibition in assay [1] (IC50).
Regarding `CC(C)c1ccc(CNCCCNCCCNCCCNCc2ccc(C(C)C)cc2)cc1`, the IC50 in assay [1] is 4100 nM.
In [2], `CCNCC[C@@H](O)CNCCCCNC[C@H](O)CCNCC` had an IC50 of 600 nM.
For the compound `CCCCCCCCCCCCCC1CC(=O)NCCCNCCCCNCCCN1` (stereo not given) [BUDMUNCHIAMINE L4], the IC50 in assay [3] and in [4] was 600 nM throughout.
`CC1(C)C2CCC(CNCCCNCCCNCCCNCC3CCC4CCC3C4(C)C)C1CC2` (stereo not given) had an IC50 in assay [1] of 2800 nM.
In turn, `CCNCCCNCCCCNCCCNCC` [BIS(ETHYL)SPERMINE] displayed a half-maximal inhibitory concentration (IC50) in assay [2] of 500 nM.
For `CCNCCCNC/C=C\CNCCCNCC`, the IC50 in assay [5] worked out at 250 nM; in assay [6] it was 250 nM; in assay [7] it was 250 nM; in assay [8], 250 nM; in assay [9] it was 9.25 µM; in assay [4], 250 nM.
In [10], `Nc1ccccc1NC(=O)c1ccc(CNC(=O)OCc2cccnc2)cc1` [ENTINOSTAT] displayed an IC50 of 0.75 µM.
Take `CCNC/C=C\CNCCCCNCCCCNCCCCNCC`: the IC50 came out at 250 nM in [5], 80 nM in [11], 80 nM in assay [3] and 80 nM in [4].
`Nc1ccccc1NC(=O)c1ccc(CNC(=O)CCCCC(=O)NCCCNCCCCNCc2ccccc2-c2ccccc2)cc1`: the IC50 in assay [9] and in assay [12] was more than 30 µM throughout. For the same compound, the inhibition in assay [13] turned out to be 60.1%.
As for `COc1cc(C(C)(C)C)cc(C(C)(C)C)c1CNCCCNCCCNCCCNCc1c(OC)cc(C(C)(C)C)cc1C(C)(C)C`, the IC50 in assay [1] was 4000 nM.
Still for that read-out and setting: in the case of `c1ccc(C(CCNCCCCNCCCNCCC(c2ccccc2)c2ccccc2)c2ccccc2)cc1` it was 4600 nM.
Still for that read-out and setting: the figure for `CCNCCCNCCCCNCCCNCC(CC)CC` is 3100 nM.
With `CCNCCCCNC[C@H]1C[C@@H]1CNCCCCNC[C@H]1C[C@@H]1CNCCCCNCC`, the IC50 in [5] and in [3] was 120 nM throughout.
In [1], `FC(F)(F)Sc1ccc(CNCCCNCCCNCCCNCc2ccc(SC(F)(F)F)cc2)cc1` displayed an IC50 of 3600 nM.
Regarding `CCNCCCNCC1CCC1CNCCCNCC` (stereo not given), the IC50 in assay [5] was not below 100 nM; in [6], not below 100 nM; in assay [7], not below 100 nM; in assay [8] it was not below 100 nM; in [9], not below 0.1 µM; in [4], not below 100 nM.
`CCNCCCNCCCCNCCCNCCC(C)C` gave an IC50 in assay [1] of 1700 nM.
Turning to `O=C(CCCCCCC(=O)NCCCNCCCCNCCC(c1ccccc1)c1ccccc1)NO`, in assay [14], the inhibition was 75%. In [10], this compound came in with an IC50 of 10 µM.
In the case of `CCCCNCCCCNCCCCNCCCNCC`, in assay [1], the IC50 amounted to 2200 nM.
Turning to `Cc1ccc(CNCCCCNC(=O)CCCCCC(=O)NCc2ccc(C(=O)Nc3ccccc3N)cc2)cc1`, the figures for the IC50 in assay [9] and in assay [12] were 0.9 µM and 24 µM, respectively. Further, the inhibition in assay [13] came to 48.1%.
For `CCNCCCNCc1ccccc1CNCCCNCC`, the IC50 is more than 30000 nM in assay [5]; more than 30000 nM in [6]; more than 30000 nM in assay [7]; more than 30000 nM in assay [8]; more than 30 µM in [9]; more than 30000 nM in assay [4].
In the case of `CCNCCCNCCCNCCCNC(C)CC` (stereo not given), the IC50 in assay [6] turned out to be 800 nM; in assay [1], 1300 nM; in assay [15], 800 nM; in assay [16] it was 800 nM.
Take `CC(=O)C(=O)NCCCCCC(=O)NCCCNCCCCNCCC(c1ccccc1)c1ccccc1`: the IC50 in [9] and in [12] was more than 30 µM throughout. In [13], this compound yielded an inhibition of 30.2%.
In the case of `CCNCCCNCCCNCCCNC(C)C`, the IC50 in assay [1] was determined as 1400 nM.
Still for that read-out and setting: the figure for `CCSCCNCCCNCCCNCCCNCCSCC` is 1400 nM.
Turning to `CCNCCCNCC1CC1CNCCCNCC` (stereo not given), the IC50 is not below 300 nM in assay [5]; not below 300 nM in assay [6]; not below 300 nM in [7]; not below 300 nM in assay [8]; not below 0.3 µM in [9]; not below 300 nM in assay [4].
For `CC(C)(C)c1ccc(CNCCCCNCCCNC(=O)CCCCCC(=O)NO)cc1`, in assay [17], the fold change (FC) worked out at 253.
As for `CCNCCCNCCCNCCCNC[C@@H](C)CC`, the 50% inhibitory concentration (IC50) in assay [1] and in assay [15] was 1300 nM throughout.
In the case of `CCNC/C=C\CNCCCCNCCCCNC/C=C\CNCC`, the IC50 in assay [5], in assay [11], in [3] and in assay [4] was 140 nM throughout.
`CC(C)(C)c1ccc(CNCCCNCCCNCCCNCc2ccc(C(C)(C)C)cc2)cc1`: in assay [1], the IC50 came to 4200 nM.
As to `CCNCCCCNC[C@@H]1C[C@H]1NCCCCNCC`, the IC50 is 250 nM in [5]; 250 nM in assay [6]; 250 nM in assay [7]; 250 nM in assay [8]; more than 30 µM in assay [9]; 250 nM in assay [4].
